We go through 27 molecules from patent US7939531B2, “Pyrrolopyrazine kinase inhibitors” (Roche Palo Alto, priority 2008, dated 2011).

Data set [1] deals with JAK3: Recombinant human kinase domain (Homo sapiens, UniProt P52333). As to the kind of experiment: Determination of IC50 of Janus Kinase (JAK) Inhibition (radioactive end-point 33P-ATP kinase assay).
Protocol: Assay conditions used are described below: • Assay Buffer: JAK Kinase Buffer: 50 mM Hepes [pH 7.2], 10 mM MgCl2, 1 mM DTT, 1 mg/ml BSA. The assay is carried out in this buffer. • Assay Format The kinase activity of all three JAK kinases is measured using a radioactive, end-point assay and with trace amounts of ^33P-ATP. The assays are carried out in 96-well polypropylene plates.
All concentrations are final in the reaction mixture and all incubations are carried at room temperature. […] Final concentration of DMSO in the reaction is 10%. • 2) Compounds are preincubated with enzyme (0.5 nM JAK3 (commercially available), 0.2 nM JAK3 (prepared), 1 nM JAK2, 5 nM JAK1) for 10 minutes. • 3) Reactions are initiated by the addition of a cocktail of the two substrates (ATP and peptide premixed in the JAK Kinase Buffer). […] JAK1 assay is carried out at an ATP concentration of 10 uM and a peptide concentration of 50 uM. • 4) The duration of the assay for JAK2 and JAK3 is 20 minutes. JAK1 assay is carried out for 40 minutes. With all three enzymes, reactions are terminated by the addition of 0.5M EDTA to a final concentration of 100 mM. • 5) 25 ul of terminated reactions are transferred to 150 ul of a 7.5% (v/v) slurry of streptavidin-coated sepharose beads in MgCl2- and CaCl2-free 1× Phosphate Buffered Saline containing 50 mM of EDTA in 96-well, 1.2 um MultiScreen-BV filter plates. • 6) After a 30-minute incubation, the beads are washed under vacuum with the following buffers: • a. 3 to 4 washes with 200 ul of 2M NaCl. • b. 3 to 4 washes with 200 ul of 2M NaCl plus 1% (v/v) phosphoric acid. • c. 1 wash with water. • 7) Washed plates are dried in a 60° C. oven for between 1 to 2 hours. • 8) 70 ul of Microscint 20 scintillation fluid is added to each well of filter plates and after at least 30 minutes of incubation, radioactive counts are measured in a Perkinelmer microplate scintillation counter.

Counter-ions that a name gives are not always drawn. Bounds are passed on as bounds.

Sequence of JAK3: Recombinant human kinase domain (P52333 822-1111 limits assumed): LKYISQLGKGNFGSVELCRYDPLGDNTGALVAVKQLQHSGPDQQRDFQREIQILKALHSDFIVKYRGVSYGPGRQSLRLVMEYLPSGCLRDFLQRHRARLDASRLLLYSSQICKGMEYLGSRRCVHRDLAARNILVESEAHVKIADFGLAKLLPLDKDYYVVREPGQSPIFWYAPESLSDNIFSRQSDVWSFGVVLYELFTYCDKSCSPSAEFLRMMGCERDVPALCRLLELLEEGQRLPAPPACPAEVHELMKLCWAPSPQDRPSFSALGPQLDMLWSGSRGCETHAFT

For `CC(C)(C)C(=O)c1c[nH]c2ncc(C3=C(c4ccccc4)CCC3)nc12` [Compound I-38, 2,2-Dimethyl-1-[2-(2-phenyl-cyclopent-1-enyl)-5H-pyrrolo[2,3-b]pyrazin-7-yl]-propan-1-one], the melting point – broadly, the temperature of the solid-liquid transition – was in the range of 207 to 209 °C. The molecule `CC(C)(C)C(=O)c1c[nH]c2ncc(-n3ccc4ccccc43)nc12` [Compound I-97, 1-(2-Indol-1-yl-5H-pyrrolo[2,3-b]pyrazin-7-yl)-2,2-dimethyl-propan-1-one] returned a melting point of 205 to 207 °C.

The molecule `CC(C)(C)C(=O)c1c[nH]c2ncc(-c3ccnc(N4CCCCC4)c3)nc12` [Compound I-13, 2,2-Dimethyl-1-[2-(3,4,5,6-tetrahydro-2H-[1,2′]bipyridinyl-4′-yl)-5H-pyrrolo[2,3-b]pyrazin-7-yl]-propan-1-one] gave a melting point of 250 to 251 °C. Still for that read-out and setting: the same measure for `CC(C)(C)C(=O)c1c[nH]c2ncc(-c3cn(Cc4ccccc4)nn3)nc12` [Compound I-105, 1-[2-(1-Benzyl-1H-[1,2,3]triazol-4-yl)-5H-pyrrolo[2,3-b]pyrazin-7-yl]-2,2-dimethyl-propan-1-one]: 235 to 237 °C; for `CNC1CCCN(c2cnc3[nH]cc(C(=O)NC(C)C)c3n2)C1` (stereo not drawn) [Compound I-8, 2-(3-Methylamino-piperidin-1-yl)-5H-pyrrolo[2,3-b]pyrazine-7-carboxylic acid isopropylamide; compound with trifluoro-acetic acid]: 54 to 64 °C; for `CC(C)(C)C(=O)c1c[nH]c2ncc(-c3cncs3)nc12` [Compound I-121, 2,2-Dimethyl-1-(2-thiazol-5-yl-5H-pyrrolo[2,3-b]pyrazin-7-yl)-propan-1-one]: 281 to 282 °C. As for `CN(CC#N)C(=O)c1cc(-c2cnc3[nH]cc(C(=O)C4(C)CCCCC4)c3n2)cs1` [Compound I-40, 4-[7-(1-Methyl-cyclohexanecarbonyl)-5H-pyrrolo[2,3-b]pyrazin-2-yl]-thiophene-2-carboxylic acid cyanomethyl-methyl-amide], the IC50 (commonly the point on the concentration scale where inhibition reaches its midpoint) in data set [1] came out at 44.7 nM. For `CC(C)(C)C(=O)c1c[nH]c2ncc(-c3ccnc(N4CCCC4)c3)nc12` [Compound I-11, 2,2-Dimethyl-1-[2-(2-pyrrolidin-1-yl-pyridin-4-yl)-5H-pyrrolo[2,3-b]pyrazin-7-yl]-propan-1-one], the melting point is 275.1 to 276.4 °C. Turning to `CC1CCCN1c1cc(-c2cnc3[nH]cc(C(=O)C(C)(C)C)c3n2)ccn1` (stereo not drawn) [Compound I-16, 2,2-Dimethyl-1-{2-[2-(2-methyl-pyrrolidin-1-yl)-pyridin-4-yl]-5H-pyrrolo[2,3-b]pyrazin-7-yl}-propan-1-one], the melting point was in the range of 220 to 221 °C. The same measure, in the same setting: the same measure for `CC(C)(C)C(=O)c1c[nH]c2ncc(-c3ccnc(N4CCSCC4)c3)nc12` [Compound I-15, 2,2-Dimethyl-1-[2-(2-thiomorpholin-4-yl-pyridin-4-yl)-5H-pyrrolo[2,3-b]pyrazin-7-yl]-propan-1-one]: 287 to 290 °C; for `Cc1nccn1-c1cnc2[nH]cc(C(=O)C(C)(C)C)c2n1` [Compound I-108, 2,2-Dimethyl-1-[2-(2-methyl-imidazol-1-yl)-5H-pyrrolo[2,3-b]pyrazin-7-yl]-propan-1-one]: 247 to 249 °C. The same measure, in the same setting: the same measure for `CCc1nccn1-c1cnc2[nH]cc(C(=O)C(C)(C)C)c2n1` [Compound I-110, 1-[2-(2-Ethyl-imidazol-1-yl)-5H-pyrrolo[2,3-b]pyrazin-7-yl]-2,2-dimethyl-propan-1-one]: 276 to 278 °C; for `CC(C)(C)C(=O)c1c[nH]c2ncc(-c3cn(S(=O)(=O)c4ccccc4)c4ccccc34)nc12` [Compound I-1, 1-[2-(1-Benzenesulfonyl-1H-indol-3-yl)-5H-pyrrolo[2,3-b]pyrazin-7-yl]-2,2-dimethyl-propan-1-one]: 267 to 268 °C. `CC(C)(C)C(=O)c1c[nH]c2ncc(-c3ccc(C(=O)NC4CCCC4)s3)nc12` [Compound I-31, 5-[7-(2,2-Dimethyl-propionyl)-5H-pyrrolo[2,3-b]pyrazin-2-yl]-thiophene-2-carboxylic acid cyclopentylamide] registered a melting point of over 300 °C. As for `CN(C)C1CCN(c2cc(-c3cnc4[nH]cc(C(=O)C(C)(C)C)c4n3)ccn2)C1` (stereo not drawn) [Compound I-14, 1-{2-[2-(3-Dimethylamino-pyrrolidin-1-yl)-pyridin-4-yl]-5H-pyrrolo[2,3-b]pyrazin-7-yl}-2,2-dimethyl-propan-1-one], the melting point is 226 to 228 °C. `CC(C)(C)C(=O)c1c[nH]c2ncc(-c3cn(C4CCCC4)nn3)nc12` [Compound I-12, 1-[2-(1-Cyclopentyl-1H-[1,2,3]triazol-4-yl)-5H-pyrrolo[2,3-b]pyrazin-7-yl]-2,2-dimethyl-propan-1-one] showed a melting point of 193.3 to 199.3 °C.

Molecule `COc1cncc(-c2cnc3[nH]cc(C(=O)C(C)(C)C)c3n2)c1` [Compound I-6, 1-[2-(5-Methoxy-pyridin-3-yl)-5H-pyrrolo[2,3-b]pyrazin-7-yl]-2,2-dimethyl-propan-1-one] yielded a melting point of 215 to 223.6 °C.

The molecule `CC(C)(C)C(=O)c1c[nH]c2ncc(-n3ccnc3)nc12` [Compound I-107, 1-(2-Imidazol-1-yl-5H-pyrrolo[2,3-b]pyrazin-7-yl)-2,2-dimethyl-propan-1-one] had a melting point of 215 to 217 °C. As to `CN(CCO)C(=O)c1ccc(-c2cnc3[nH]cc(C(=O)C4(C)CCCCC4)c3n2)s1` [Compound I-73, 5-[7-(1-Methyl-cyclohexanecarbonyl)-5H-pyrrolo[2,3-b]pyrazin-2-yl]-thiophene-2-carboxylic acid (2-hydroxy-ethyl)-methyl-amide], the IC50 in data set [1] came to 18 nM.

As to `CCOC(=O)c1cc2cc(C3=C(c4cnc5[nH]cc(C(=O)C(C)(C)C)c5n4)CCC3)ccc2[nH]1` [Compound I-39, 5-{2-[7-(2,2-Dimethyl-propionyl)-5H-pyrrolo[2,3-b]pyrazin-2-yl]-cyclopent-1-enyl}-1H-indole-2-carboxylic acid ethyl ester], the melting point was in the range of 278 to 280 °C.

`CC1=NCCN1c1cnc2[nH]cc(C(=O)C(C)(C)C)c2n1` [Compound I-109, 2,2-Dimethyl-1-[2-(2-methyl-4,5-dihydro-imidazol-1-yl)-5H-pyrrolo[2,3-b]pyrazin-7-yl]-propan-1-one]: the melting point lay within 235 to 236 °C.

Consider `CC1(C(=O)c2c[nH]c3ncc(-c4ccc(C(=O)N5CCC(O)C5)s4)nc23)CCCCC1` (stereo not drawn) [Compound I-74, {2-[5-(3-Hydroxy-pyrrolidine-1-carbonyl)-thiophen-2-yl]-5H-pyrrolo[2,3-b]pyrazin-7-yl}-(1-methyl-cyclohexyl)-methanone], for which the IC50 in data set [1] is 28.3 nM.

`CC(=O)N1CCN(c2cc(-c3cnc4[nH]cc(C(=O)C(C)(C)C)c4n3)ccn2)CC1` [Compound I-5, 1-{2-[2-(4-Acetyl-piperazin-1-yl)-pyridin-4-yl]-5H-pyrrolo[2,3-b]pyrazin-7-yl}-2,2-dimethyl-propan-1-one] yielded a melting point of 257 to 260 °C. Same read-out and setting: the same measure for `CC(C)NC(=O)c1c[nH]c2ncc(N3CCCC(N(C)C(=O)OC(C)(C)C)C3)nc12` (stereo not drawn) [Compound I-7, [1-(7-Isopropylcarbamoyl-5H-pyrrolo[2,3-b]pyrazin-2-yl)-piperidin-3-yl]-methyl-carbamic acid tert-butyl ester]: 251 to 252 °C.

The molecule `CCC(CC)NC(=O)c1cc(-c2cnc3[nH]cc(C(=O)C4(C)CCCCC4)c3n2)cs1` (as salt: hydrochloride) [Compound I-43, 4-[7-(1-Methyl-cyclohexanecarbonyl)-5H-pyrrolo[2,3-b]pyrazin-2-yl]-thiophene-2-carboxylic acid (1-ethyl-propyl)-amide] registered a melting point of 273 to 275 °C. Still for that read-out and setting: with `CC(C)(C)C(=O)c1c[nH]c2ncc(-c3ccc(C(=O)NC4CCOCC4)s3)nc12` [Compound I-32, 5-[7-(2,2-Dimethyl-propionyl)-5H-pyrrolo[2,3-b]pyrazin-2-yl]-thiophene-2-carboxylic acid (tetrahydro-pyran-4-yl)-amide] the figure was over 300 °C; with `CC1(C(=O)c2c[nH]c3ncc(-c4cccs4)nc23)CCCCC1` [Compound I-106, (1-Methyl-cyclohexyl)-(2-thiophen-2-yl-5H-pyrrolo[2,3-b]pyrazin-7-yl)-methanone], 224 to 225 °C.
